Experiments:
[1] = biological target: Bromodomain-containing protein 4 (Homo sapiens, UniProt O60885); assay: Displacement of Alexa Fluor 647-labeled ligand from BRD4 BD2 (unknown origin) measured after 30 mins by TR-FRET assay
[2] = Permeability of the compound by artificial lipid membrane-based method; format: ADME; details: not told; read-out: permeability
[3] = biological target: T1, ATPase family AAA domain-containing protein 2 (Homo sapiens, UniProt Q6PL18); assay: Displacement of Alexa Fluor 488-labeled ligand from FLAG-6His-Tev-fused ATAD2 (981 to 1121 residue) (unknown origin) measured after 30 mins by TR-FRET assay
T1 sequence (Q6PL18 whole entry): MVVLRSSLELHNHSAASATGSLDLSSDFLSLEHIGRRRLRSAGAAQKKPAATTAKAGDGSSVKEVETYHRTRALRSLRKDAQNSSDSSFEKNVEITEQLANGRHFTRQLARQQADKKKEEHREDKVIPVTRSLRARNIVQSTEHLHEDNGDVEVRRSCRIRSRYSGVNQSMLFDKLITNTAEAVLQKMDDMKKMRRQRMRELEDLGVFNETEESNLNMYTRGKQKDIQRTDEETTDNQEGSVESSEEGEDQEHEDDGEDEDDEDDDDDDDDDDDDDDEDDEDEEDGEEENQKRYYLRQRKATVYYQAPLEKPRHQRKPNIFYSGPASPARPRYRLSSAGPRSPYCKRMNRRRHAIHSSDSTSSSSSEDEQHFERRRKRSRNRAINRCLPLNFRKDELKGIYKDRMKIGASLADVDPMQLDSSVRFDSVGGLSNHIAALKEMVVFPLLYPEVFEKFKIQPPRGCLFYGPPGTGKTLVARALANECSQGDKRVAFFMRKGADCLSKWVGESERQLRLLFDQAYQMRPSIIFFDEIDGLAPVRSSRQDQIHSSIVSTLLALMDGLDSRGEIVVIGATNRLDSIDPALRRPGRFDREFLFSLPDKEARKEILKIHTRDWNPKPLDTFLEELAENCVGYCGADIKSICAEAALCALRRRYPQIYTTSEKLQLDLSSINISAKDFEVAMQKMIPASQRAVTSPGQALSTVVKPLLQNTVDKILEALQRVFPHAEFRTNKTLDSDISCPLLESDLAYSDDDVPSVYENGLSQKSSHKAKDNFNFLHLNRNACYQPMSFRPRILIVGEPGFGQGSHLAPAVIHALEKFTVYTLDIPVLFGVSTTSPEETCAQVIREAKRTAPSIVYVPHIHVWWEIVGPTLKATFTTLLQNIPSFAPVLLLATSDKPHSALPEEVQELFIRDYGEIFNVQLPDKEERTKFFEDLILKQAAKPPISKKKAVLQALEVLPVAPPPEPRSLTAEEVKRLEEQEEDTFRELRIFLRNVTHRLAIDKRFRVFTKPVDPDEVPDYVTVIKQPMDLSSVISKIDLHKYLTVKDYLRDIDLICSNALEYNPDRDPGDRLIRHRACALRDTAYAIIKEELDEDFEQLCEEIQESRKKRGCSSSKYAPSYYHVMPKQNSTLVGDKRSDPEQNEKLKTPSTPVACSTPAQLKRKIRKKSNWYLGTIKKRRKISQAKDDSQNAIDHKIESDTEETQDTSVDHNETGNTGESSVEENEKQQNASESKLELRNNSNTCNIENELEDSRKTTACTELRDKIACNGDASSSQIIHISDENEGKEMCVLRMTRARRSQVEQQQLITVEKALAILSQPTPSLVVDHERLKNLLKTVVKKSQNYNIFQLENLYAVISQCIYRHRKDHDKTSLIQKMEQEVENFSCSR

[4] = biological target: Histone acetyltransferase KAT2A (Homo sapiens, UniProt Q92830); assay: Binding affinity to human partial length GCN5L2 (E726 to K837 residues) expressed in bacterial expression system by BROMOscan assay
[5] = biological target: T2, Chromatin remodeling regulator CECR2 (Homo sapiens, UniProt Q9BXF3); assay: Displacement of Alexa Fluor 647-labeled GSK tracer from FLAG-6His-Tev-fused CECR2 (424 to 543 residue) (unknown origin) measured after 15 mins by TR-FRET assay
[6] = biological target: T3, Bromodomain-containing protein 1 (Homo sapiens, UniProt O95696); assay: Binding affinity to human partial length BRD1 (E556 to A688 residues) expressed in bacterial expression system by BROMOscan assay
T3 sequence (O95696 whole entry): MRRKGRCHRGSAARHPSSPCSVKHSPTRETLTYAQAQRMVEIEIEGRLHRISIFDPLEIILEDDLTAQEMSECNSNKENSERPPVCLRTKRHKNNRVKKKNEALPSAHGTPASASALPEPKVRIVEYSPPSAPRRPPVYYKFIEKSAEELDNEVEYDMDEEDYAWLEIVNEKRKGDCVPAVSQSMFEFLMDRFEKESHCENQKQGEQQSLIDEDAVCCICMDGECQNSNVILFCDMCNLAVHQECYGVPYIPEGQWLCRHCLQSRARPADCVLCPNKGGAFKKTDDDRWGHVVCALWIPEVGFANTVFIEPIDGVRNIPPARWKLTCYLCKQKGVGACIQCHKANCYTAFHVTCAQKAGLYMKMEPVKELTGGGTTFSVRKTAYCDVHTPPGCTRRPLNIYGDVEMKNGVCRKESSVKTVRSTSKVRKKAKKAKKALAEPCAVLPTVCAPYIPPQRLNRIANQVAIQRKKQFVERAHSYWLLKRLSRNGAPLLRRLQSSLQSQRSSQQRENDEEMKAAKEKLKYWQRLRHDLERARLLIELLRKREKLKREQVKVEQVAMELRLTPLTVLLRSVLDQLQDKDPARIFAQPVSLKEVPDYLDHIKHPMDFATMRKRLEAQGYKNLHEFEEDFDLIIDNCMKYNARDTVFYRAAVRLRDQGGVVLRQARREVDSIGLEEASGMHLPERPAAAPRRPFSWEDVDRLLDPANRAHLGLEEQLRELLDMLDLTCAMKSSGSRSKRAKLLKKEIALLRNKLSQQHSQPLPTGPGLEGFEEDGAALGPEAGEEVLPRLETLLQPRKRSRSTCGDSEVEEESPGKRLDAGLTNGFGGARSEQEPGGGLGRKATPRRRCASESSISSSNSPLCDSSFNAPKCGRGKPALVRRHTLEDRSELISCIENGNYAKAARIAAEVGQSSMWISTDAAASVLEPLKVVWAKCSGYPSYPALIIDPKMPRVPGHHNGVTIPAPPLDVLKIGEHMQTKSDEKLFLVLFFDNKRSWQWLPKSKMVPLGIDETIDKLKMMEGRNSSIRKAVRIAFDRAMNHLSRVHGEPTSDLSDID

[7] = biological target: T2, Chromatin remodeling regulator CECR2; assay: Inhibition of BSP-BODIPY binding to Nanoluc-tagged CECR2 (unknown origin) expressed in HEK293 cells measured after 4 to 6 hrs by NanoBRET assay; format: cell-based
[8] = biological target: Bromodomain adjacent to zinc finger domain protein 2A (Homo sapiens, UniProt Q9UIF9); assay: Binding affinity to human partial length BAZ2A (M1792 to L1905 residues) expressed in bacterial expression system by BROMOscan assay
Bromodomain adjacent to zinc finger domain protein 2A, sequence (Q9UIF9 whole entry, the tested form may be a part): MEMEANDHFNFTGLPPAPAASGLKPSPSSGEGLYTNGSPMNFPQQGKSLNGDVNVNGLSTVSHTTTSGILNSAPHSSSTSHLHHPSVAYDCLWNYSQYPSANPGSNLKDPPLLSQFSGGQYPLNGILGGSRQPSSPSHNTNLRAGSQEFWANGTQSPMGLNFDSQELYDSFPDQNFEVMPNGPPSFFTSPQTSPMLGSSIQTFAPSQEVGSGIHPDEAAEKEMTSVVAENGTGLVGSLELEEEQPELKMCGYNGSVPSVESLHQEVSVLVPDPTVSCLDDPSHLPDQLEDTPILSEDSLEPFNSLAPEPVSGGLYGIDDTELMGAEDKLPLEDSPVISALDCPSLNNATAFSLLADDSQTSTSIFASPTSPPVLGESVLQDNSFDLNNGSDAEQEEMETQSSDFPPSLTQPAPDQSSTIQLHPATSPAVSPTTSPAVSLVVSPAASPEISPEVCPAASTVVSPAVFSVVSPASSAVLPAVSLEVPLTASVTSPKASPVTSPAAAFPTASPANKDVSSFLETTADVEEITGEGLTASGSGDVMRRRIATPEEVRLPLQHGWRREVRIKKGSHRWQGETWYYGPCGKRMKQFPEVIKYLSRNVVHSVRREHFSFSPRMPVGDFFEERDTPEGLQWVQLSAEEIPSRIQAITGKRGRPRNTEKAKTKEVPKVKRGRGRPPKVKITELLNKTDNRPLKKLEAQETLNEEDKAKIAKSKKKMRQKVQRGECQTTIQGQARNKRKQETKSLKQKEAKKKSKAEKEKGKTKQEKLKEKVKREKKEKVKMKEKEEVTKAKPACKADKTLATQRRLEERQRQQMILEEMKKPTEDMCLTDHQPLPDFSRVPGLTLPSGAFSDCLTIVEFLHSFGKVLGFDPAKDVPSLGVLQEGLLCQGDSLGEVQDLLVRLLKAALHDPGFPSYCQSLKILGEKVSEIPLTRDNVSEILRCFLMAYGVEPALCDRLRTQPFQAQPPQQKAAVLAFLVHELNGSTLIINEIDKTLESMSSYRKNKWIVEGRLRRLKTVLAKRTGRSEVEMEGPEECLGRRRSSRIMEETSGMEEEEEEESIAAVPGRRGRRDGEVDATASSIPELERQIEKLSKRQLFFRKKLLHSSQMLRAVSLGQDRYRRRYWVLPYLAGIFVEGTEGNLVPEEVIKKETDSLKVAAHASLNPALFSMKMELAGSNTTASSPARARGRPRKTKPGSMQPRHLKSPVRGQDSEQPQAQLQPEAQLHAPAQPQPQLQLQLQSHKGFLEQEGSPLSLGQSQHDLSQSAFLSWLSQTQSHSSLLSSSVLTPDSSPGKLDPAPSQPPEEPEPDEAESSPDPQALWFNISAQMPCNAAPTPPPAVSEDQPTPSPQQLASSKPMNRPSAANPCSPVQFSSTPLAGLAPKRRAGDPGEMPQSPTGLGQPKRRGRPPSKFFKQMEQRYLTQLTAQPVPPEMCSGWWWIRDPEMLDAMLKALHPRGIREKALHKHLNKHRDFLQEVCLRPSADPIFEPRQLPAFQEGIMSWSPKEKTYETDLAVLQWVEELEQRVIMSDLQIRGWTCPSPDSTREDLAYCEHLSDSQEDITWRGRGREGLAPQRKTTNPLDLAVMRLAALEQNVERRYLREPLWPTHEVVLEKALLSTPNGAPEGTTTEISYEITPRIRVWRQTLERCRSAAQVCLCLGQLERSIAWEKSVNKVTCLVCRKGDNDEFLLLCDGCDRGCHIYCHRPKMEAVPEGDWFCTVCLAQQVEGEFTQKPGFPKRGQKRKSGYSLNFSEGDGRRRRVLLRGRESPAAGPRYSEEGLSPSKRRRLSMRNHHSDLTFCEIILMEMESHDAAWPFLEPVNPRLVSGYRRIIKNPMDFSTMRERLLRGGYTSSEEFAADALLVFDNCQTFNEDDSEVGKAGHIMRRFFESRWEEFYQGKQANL

T2 sequence (Q9BXF3 whole entry, the tested form may be a part): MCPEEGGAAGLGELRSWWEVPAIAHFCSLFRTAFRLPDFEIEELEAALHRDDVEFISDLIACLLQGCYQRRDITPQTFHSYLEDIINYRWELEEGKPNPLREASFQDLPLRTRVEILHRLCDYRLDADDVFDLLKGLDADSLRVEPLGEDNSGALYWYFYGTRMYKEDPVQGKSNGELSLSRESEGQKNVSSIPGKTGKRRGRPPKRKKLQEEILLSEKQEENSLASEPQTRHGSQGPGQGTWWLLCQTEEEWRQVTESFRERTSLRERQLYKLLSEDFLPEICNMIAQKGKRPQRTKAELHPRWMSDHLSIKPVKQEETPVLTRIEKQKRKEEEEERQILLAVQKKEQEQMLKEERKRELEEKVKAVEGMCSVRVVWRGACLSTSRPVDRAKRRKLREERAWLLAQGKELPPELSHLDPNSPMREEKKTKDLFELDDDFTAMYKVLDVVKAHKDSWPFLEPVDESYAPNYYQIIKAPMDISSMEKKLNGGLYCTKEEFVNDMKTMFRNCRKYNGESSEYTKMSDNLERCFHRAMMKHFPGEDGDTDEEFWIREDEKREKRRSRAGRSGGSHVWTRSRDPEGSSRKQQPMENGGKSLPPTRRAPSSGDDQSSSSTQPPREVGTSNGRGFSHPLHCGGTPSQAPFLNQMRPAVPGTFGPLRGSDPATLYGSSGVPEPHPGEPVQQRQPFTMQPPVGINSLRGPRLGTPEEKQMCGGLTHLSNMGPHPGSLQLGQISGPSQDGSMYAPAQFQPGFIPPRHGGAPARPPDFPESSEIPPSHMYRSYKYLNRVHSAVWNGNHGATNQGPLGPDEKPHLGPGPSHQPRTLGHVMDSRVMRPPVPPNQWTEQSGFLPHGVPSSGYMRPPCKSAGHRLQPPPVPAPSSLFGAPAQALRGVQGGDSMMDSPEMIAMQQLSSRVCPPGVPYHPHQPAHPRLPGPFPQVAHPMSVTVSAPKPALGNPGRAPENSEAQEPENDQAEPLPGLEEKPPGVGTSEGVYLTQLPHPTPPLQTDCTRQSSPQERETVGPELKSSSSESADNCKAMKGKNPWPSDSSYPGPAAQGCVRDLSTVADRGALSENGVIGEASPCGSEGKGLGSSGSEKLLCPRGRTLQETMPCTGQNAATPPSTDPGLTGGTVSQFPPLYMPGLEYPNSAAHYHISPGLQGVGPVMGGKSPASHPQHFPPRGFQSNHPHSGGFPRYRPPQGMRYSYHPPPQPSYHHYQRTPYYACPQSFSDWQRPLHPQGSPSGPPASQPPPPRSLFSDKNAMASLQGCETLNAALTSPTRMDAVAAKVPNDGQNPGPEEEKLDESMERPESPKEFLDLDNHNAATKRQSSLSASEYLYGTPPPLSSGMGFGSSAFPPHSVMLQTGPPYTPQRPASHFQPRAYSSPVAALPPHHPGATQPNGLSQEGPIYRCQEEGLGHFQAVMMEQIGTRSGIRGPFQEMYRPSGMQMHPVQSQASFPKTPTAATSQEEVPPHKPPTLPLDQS
Histone acetyltransferase KAT2A, sequence (Q92830 whole entry, the tested form may be a part): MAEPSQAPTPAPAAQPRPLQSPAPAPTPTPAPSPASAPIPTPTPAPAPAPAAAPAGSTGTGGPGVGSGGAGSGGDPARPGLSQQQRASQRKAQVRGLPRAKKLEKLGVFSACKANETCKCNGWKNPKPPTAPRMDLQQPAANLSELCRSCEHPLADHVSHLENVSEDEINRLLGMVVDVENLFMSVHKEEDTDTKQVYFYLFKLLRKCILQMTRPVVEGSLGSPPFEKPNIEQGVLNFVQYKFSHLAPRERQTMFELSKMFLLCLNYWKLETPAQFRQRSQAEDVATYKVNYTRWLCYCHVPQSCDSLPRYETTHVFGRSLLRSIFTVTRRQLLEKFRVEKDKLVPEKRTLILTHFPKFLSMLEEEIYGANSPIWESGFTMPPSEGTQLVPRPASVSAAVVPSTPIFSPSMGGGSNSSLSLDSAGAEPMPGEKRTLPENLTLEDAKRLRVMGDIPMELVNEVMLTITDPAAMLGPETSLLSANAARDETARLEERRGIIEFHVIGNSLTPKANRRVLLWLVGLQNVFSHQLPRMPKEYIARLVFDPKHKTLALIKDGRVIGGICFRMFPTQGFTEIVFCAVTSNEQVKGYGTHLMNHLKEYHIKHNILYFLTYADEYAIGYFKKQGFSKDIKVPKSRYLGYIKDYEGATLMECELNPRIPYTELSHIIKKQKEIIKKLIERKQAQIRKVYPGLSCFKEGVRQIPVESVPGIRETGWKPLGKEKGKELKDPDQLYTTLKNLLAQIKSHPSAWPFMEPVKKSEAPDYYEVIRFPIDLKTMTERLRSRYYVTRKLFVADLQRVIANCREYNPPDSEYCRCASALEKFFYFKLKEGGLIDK

IC50 [1]: 12600 nM | Papp [2]: 9.9 ×10⁻⁶ cm/s | IC50 [3]: 63.1 nM | Kd [4]: 251 nM | IC50 [5]: 316 nM | Kd [6]: 126 nM | IC50 [7]: 251 nM | Kd [8]: 15.8 nM
SMILES: C[C@H]1CCN(S(=O)(=O)c2cc(NC(=O)CN3C(=O)N[C@@](C)(C4CC4)C3=O)ccc2Br)C1

— ChEMBL document CHEMBL4354881, “Optimization of Potent ATAD2 and CECR2 Bromodomain Inhibitors with an Atypical Binding Mode” (J Med Chem, 2020)
